The subject of assay [1] is hESCs. As to the kind of experiment: qPCR of mesendodermal markers in hESCs. It counts as cell-based, human. On the procedure:
After the indicated time periods, embryoid bodies were harvested and RNA extracted using RNeasy kit ([…]). qPCR reactions were carried out using either Universal FastSlart SYBR Green Mastermix (Roche) or using the Universal Probe Library system (Roche) in tandem with Taqman Fast Mastermix (Invitrogen). Primer sequences can be found in Table E1.
On the technique in general: In qPCR the cycle at which signal appears reflects the starting amount.

The subject of assay [2] is human chondrosarcoma cell line. As to the kind of experiment: growth and survival effect of recombinant ELA on chondrosarcoma cells. It counts as cell-based. The method, then:
Primary human fibroblasts, SW1353 chondrosarcoma (ATCC) and NTERA2 hECs (a gift from Barbara Knowles and Davor Solter) were grown in Dulbecco's modified Eagle's medium (DMEM) with 10% FBS (Hyclone), 2 mM GlutaMAX™ (Invitrogen) and 1 mM sodium pyruvate. For xCELLigence real time growth assays, 4000 cells were plated per well of an E-plate (ACEA Biosciences) with media changes every 48 hours. […] Cell cycle studies were performed with Click-iT EDU staining kit (Invitrogen) and by performing a double thymidine block (2.5 mM thymidine; 16 hour block, 8 hour release, 16 hour block) followed by DAPI staining for DNA content at the indicated times following release.

Assay [3] is described as follows: artherosclerosis, APELIN experiments repeated with ELABELA. The format is in vivo. An excerpt:
J Clin Invest 2008; 118:3343-54.
The experiments described in the above publication are repeated, with the replacement of APELIN with ELABELA.

Assay [4] deals with hESCs. As to the kind of experiment: directed endoderm differentiation of hESCs, SOX17+ cell count. Conditions: 2.5 uM ELA peptide up to day 3, count on day 5. The format is cell-based, human. The method, then: Shef4TetR5-shELA and Shef4TetR5-shβ2M cells were cultured in the presence (shELA and shβ2M respectively) or absence (Control) of 20 ng/ml doxycycline for 1 passage (4 days) and dissociated with Accutase. […] 24 hours later, the media was changed to Endo differentiation media 1 [RPMI 1640 (Gibco), 1× B-27 supplement (Invitrogen), 50 ng/ml of Activin A (R&D Systems), 25 ng/ml BMP4 (R&D Systems) and 50 ng/ml bFGF (Invitrogen)] for 3 days. On day 3, the media was changed to Endo differentiation media 2 (RPMI 1640, B27, 50 ng/ml Activin) for 2 more days of culture. Rescue experiments were performed by adding 2.5 uM of ELA peptide to Shef4TetR5-shELA concurrently with doxycycline up to day 3, when the ELA peptide is no longer necessary as judged by downregulation of endogenous ELA.
On day 5, cells were fixed with 4% paraformaldehyde and stained with α SOX17 (AF1924, R&D Systems) and DAPI. For each well, three different randomly selected fields were imaged and the number of nuclei staining positive of SOXI 7 and DAPI were counted using a custom macro in ImageJ. A minimum of two wells per condition was used for each experiment, and a minimum of two independent experiments were performed to generate the results.

For the next assay, the target named is CXCR4 (Homo sapiens, UniProt P61073). In words: ELA receptor binding assay (ELA-AP) on 293T cells transfected with receptor. Details: 293T cells transfected with plasmids encoding full-length ORFs of putative receptors; expressed in transfected cells; host or cells: 293T. Particulars: ELA-AP conditioned medium, 3 hours. The method, then: Secreted ELA-Alkaline Phosphatase (ELA-AP) was produced by transfecting a construct encoding ELA-AP into 293T cells, as described previously (Chng et al., 2013). Conditioned medium from ELA-AP expressing cells was then incubated for 3 hours with 293T cells transfected with plasmids encoding full-length ORFs of putative receptors. Unbound ELA-AP was washed away and cells were lysed with 1% Triton-X/PBS. Lysates were cleared and incubated with an AP substrate BCIP/NBT at 37° C. for 15 minutes. Optical density was read at 495 nm, and the intensity of blue coloration is directly proportional to the affinity of ELA-AP to the over-expressed receptor.

Assay [5] can be described thus: hypertension, APELIN experiments repeated with ELABELA. Particulars: in vivo. An excerpt: Regulatory Peptides. 2001; 99(2-3):87-92. • Cheng X, Cheng X S, Pang C C. […] European Journal of Pharmacology. […] Journal of the American College of Cardiology. 2008; 52(11):908-913.
Assay [6] relates to hESCs. As to the kind of experiment: xCELLigence real time growth assay, cell counts and colony size of hESCs. The format is cell-based, human. The method, then: Feeder-free hESCs were cultured in clumps in mTSER1 (Stem Cell Technologies) on Matrigel (BD 354277).
hESCs were dissociated into single cells using Accutase (Stem Cell Technologies) and plated in the presence of 10 μM Y-27632 (ROCK inhibitor) for 12 hours (Watanabe et al., 2007).
For xCELLigence real time growth assays, 4000 cells were plated per well of an E-plate (ACEA Biosciences) with media changes every 48 hours.
Recombinant ELA was added at 2.5 uM (or 10 μg/ml). Cell cycle studies were performed with Click-iT EDU staining kit (Invitrogen) and by performing a double thymidine block (2.5 mM thymidine; 16 hour block, 8 hour release, 16 hour block) followed by DAPI staining for DNA content at the indicated times following release.

A short description of assay [7]: coronary artery disease / myocardial infarction, APELIN experiments repeated with ELABELA. The format is in vivo. The text has this:
Peptides 2013; 46:76-82. • Li L, Zeng H, Chen J X. Apelin-13 increases myocardial progenitor cells and improves repair postmyocardial infarction. Am J Physiol Heart Cire Physiol 2012; 303:H605-18. • Pisarenko O I, Serebryakova L I, Pelogeykina Y A, et al. In vivo reduction of reperfusion injury to the heart with apelin-12 peptide in rats. Bull Exp Biol Med 2011; 152:79-82.

“Also recorded” adds a separate entry of the source.

Sequence of CXCR4 (P61073 whole entry): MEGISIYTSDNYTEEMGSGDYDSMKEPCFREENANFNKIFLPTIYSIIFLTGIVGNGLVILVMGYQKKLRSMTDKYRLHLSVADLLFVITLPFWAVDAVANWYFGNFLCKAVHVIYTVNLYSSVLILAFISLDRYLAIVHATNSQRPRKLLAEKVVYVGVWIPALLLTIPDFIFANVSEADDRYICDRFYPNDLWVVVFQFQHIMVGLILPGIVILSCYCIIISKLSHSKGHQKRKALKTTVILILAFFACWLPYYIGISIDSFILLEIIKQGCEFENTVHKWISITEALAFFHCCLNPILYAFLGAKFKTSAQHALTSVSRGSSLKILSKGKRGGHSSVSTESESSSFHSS

On to QRPVNLTMRRKLRKHNCLQRRCMPLHSRVPFP [ELA], for which, in the assay on hESCs [1], the “expression of mesendodermal genes GATA6, GATA4, FOXA2, EOMES and BRA” value was “consistently upregulated”. The “activity of recombinant ELA on human chondrosarcoma cell line” value in assay [2] is “exerted activity only on hESCs cultures and no other differentiated cell types”. For the same sequence, the protection against artherosclerosis entry in assay [3] (Ang II) was “can protect against artherosclerosis”. In assay [3] (in vivo), the “abdominal aortic aneurysm formation and rupture” value is “inhibit abdominal aortic aneurysm formation and rupture”. In the assay with hESCs [4], the “rescue of SOX17+ endoderm differentiation of shELA hESCs” value was “entirely rescued”. Further, the “cell surface binding to CXCR4” value with CXCR4 is reported as “confers cell surface binding to ELA”. Also, in assay [5], the blood pressure entry was “causes a reduction in blood pressure”. Also, in the assay with hESCs [6] (addition of recombinant peptide to shELA hESCs), the “rescue of the growth of shELA hESCs” value is given as “entirely rescued to normal levels”. The “concentration range in which the recombinant peptide is bioactive” value in the assay on hESCs [6] (hESCs) is on record as “bioactive only in the μM range; also recorded: works in the μM range”. Moreover, the “angiogenesis and cardiac repair postmyocardial infarction” value in assay [7] (in vivo) is “promote angiogenesis and ameliorate cardiac repair postmyocardial infarction”. For the same sequence, the “myocardial infarction size and damage to cardiomyocytes” value in assay [7] (injection) is “limit the myocardial infarction size and reduce damage to cardiomyocytes”.

The record behind these values is patent US9902761B2, “Polypeptides, nucleic acids and uses thereof” (AGENCY FOR SCIENCE, TECHNOLOGY AND RESEARCH, priority 2013, dated 2018).
